This is an account of results in patent US20250032598A1, “Compounds, Pharmaceuticals, Formulations, and Methods for Treating and Preventing RNA Virus Infections and Associated Diseases” (ASAVI LLC, priority 2023, published 2025).

The test system of one data set is SARS-CoV-2. It is filed as in vivo, Syrian hamsters.
Another data set deals with influenza. Particulars: cited from earlier work.
[1] abbreviates: female Syrian hamsters, lung homogenates 96 hours after infection, 50,000 KIU/kg intravenously 2 times a day for 4 days, Lip-APR = composition 2.
[2] abbreviates: male Syrian hamsters, lung homogenates 96 hours after infection, 50,000 KIU/kg intravenously 2 times a day for 4 days, Lip-APR = composition 2.
Where [3] appears, read: male and female Syrian hamsters pooled, lung homogenates, 10,000 KIU/ml, 50,000 KIU/kg intravenously.

Where two headings read alike, the source gives them in different places.

As to aprotinin, the “Infectious titer lg (TCID50/mL) ± SD” value in the data set with SARS-CoV-2 (setting [1]) was 4.38±0.85 lg (TCID50/mL); with SARS-CoV-2 (setting [2]), 3.88±0.48 lg (TCID50/mL); in the data set with SARS-CoV-2 (setting [3]), 4.13±0.69 lg (TCID50/mL). Also, the “Viral load Ct ± SD” value came to 17.51±1.04 Ct with SARS-CoV-2 (setting [1]), 17.51±1.28 Ct with SARS-CoV-2 (setting [2]) and 17.72±1.10 Ct in the data set with SARS-CoV-2 (setting [3]). Also, the “Anti-SARS-CoV-2/COVID-19 efficacy (in words)” value in the data set with SARS-CoV-2 (intravenous, 50,000 KIU/kg, versus untreated control) is reported as “no antiviral activity”. Also, the “Reduction in viral load compared with patients treated with Ingavirin” value with influenza (APR aerosol, patients) is “approximately 10 fold”. Also, in the data set on influenza (patients of the APR group), the “Side effects and discomfort” value is reported as “not identified”. Moreover, in the data set with influenza (rhinorrhea, weakness, headache, sore throat, cough, chest pain, fever), the “Duration of clinical symptoms, shorter than in the Ingavirin group” value was 1 to 2 days.
